The values below are quoted from earlier work in patent US6464987B1, “Pharmaceutical compositions capable of being gelled” (UCB, S.A., priority 1998, dated 2002).

Read-outs that look alike come from different tables or passages of the source.

Data set [1] deals with humans. The conditions noted are these: PLA-GA implants or PLA-GA microparticles.
The conditions of data set [2]: mouse, in vivo.

As to `CC(C)C[C@H](NC(=O)[C@@H](COC(C)(C)C)NC(=O)[C@H](Cc1ccc(O)cc1)NC(=O)[C@H](CO)NC(=O)[C@H](Cc1c[nH]c2ccccc12)NC(=O)[C@H](Cc1cnc[nH]1)NC(=O)[C@@H]1CCC(=O)N1)C(=O)N[C@@H](CCCNC(=N)N)C(=O)N1CCC[C@H]1C(=O)NNC(N)=O` [gosereline], the “level of testosterone in the blood” value in data set [1] is “very significant and lasting decrease”.

The bioavailability is the share of a dose that reaches the circulation, judged against a reference dose that is usually intravenous. On to `NC(=O)[C@@H]1CCCN1C(=O)[C@H](Cc1cnc[nH]1)NC(=O)[C@@H]1CCC(=O)N1` [TRH, thyrotropin releasing hormone], for which the values for the bioavailability in data set [2] (im) and in data set [2] (sc) were 31.4% and 67.5%, respectively.
